Measurements reported in patent publication EP1283044A2, “Injectable ready-to-use solutions containing an antitumor anthracycline glycoside” (Pharmacia Italia S.p.A., priority 1986, dated 1988).
Counter-ions that a name gives are not always drawn.

Legend:
[1] = pH-stability profile at 55°C of epirubicin.HCl 2 mg/ml solutions in Water for Injection, 0.9% saline or 5% dextrose: HPLC assay, pH, Kobs; type: physicochemical
Procedure: Each solution was filtered through a 0.22 µm microporous membrane under nitrogen pressure. 5.0 ml of each solution were stored at 55°C in glass vials of glass type I, 8ml top capacity vial, Teflon (Trade Mark)-faced chlorobutyl rubber bung, aluminium seal.
The doxorubicin.HCl assays are the mean of three independent determinations performed by the US Pharmacopoeia (USP high performance liquid chromatography (HPLC) method (USP XXI)).
Solutions of epirubicin were prepared in the same fashion as the corresponding doxorubicin solutions hereinbefore. They were then tested for stability in the same way. The results are presented in Tables 32 to 61 below and illustrated in Figures 4 to 6.

[2] = Shelf-life (t90%) forecast, Arrhenius approach, doxorubicin.HCl 2 mg/ml sterile water solution pH 3.0; type: physicochemical; settings: for K x 10^3: 2 mg/ml sterile water solution pH 3.0, calculated from Arrhenius equation; for t90%: 2 mg/ml sterile water solution pH 3.0, calculated shelf-life; for Kobs x 10^3: 2 mg/ml sterile water solution pH 3.0, observed
Procedure: The solution was filtered through a 0.22 µm microporous membrane under nitrogen pressure. 5.0 ml aliquots were stored at: • (a) 55°C for 21 days, • (b) 45°C and 35°C for 28 days, and • (c) 27°C for 90 days. in glass vials of glass type I, 8ml top capacity vial, Teflon-faced chlorobutyl rubber bung, aluminium seal. At predetermined times the vials were analysed for doxorubicin.HCl assay and pH.
The Arrhenius equation for the degradation process was calculated from the Kobs obtained from the different temperatures taken in account for the testing (Table 8). Applying the equation, the rate constants for the pseudo-first order reactions at 4°C, 8°C, 15°C and 27°C were calculated, together with the expected shelf-life (t90%)at these temperatures.

[3] = Shelf-life (t90%) forecast, Arrhenius approach, doxorubicin.HCl 2 mg/ml pH 3.0 in 5% dextrose; type: physicochemical; settings: 2 mg/ml pH 3.0 solution in 5% dextrose; for t90%: calculated shelf-life; for Kobs x 10^3: observed
Procedure: The solution was filtered through a 0.22 µm microporous membrane under nitrogen pressure. 5.0 ml aliquots were stored at: • (a) 60°C for 8 days, • (b) 55°C for 28 days, • (c) 45°C for 28 days, and • (d) 35°C for 28 days in glass vials of glass type I, 8ml top capacity vial, Teflon-faced chlorobutyl rubber bung, aluminium seal.
The Arrhenius equation for the degradation process was calculated from the Kobs obtained from the different temperatures taken in account for the testing (Table 30). Applying the equation, the rate constants for the pseudo-first order reactions at 4°C, 8°C, 15°C and 27°C were calculated, together with the expected shelf-life (t90%) at these temperatures.

[4] = Long term stability of doxorubicin.HCl 2 mg/ml solution in 0.9% sodium chloride at pH 3.7; settings: batch TF/23256, 0.9% sodium chloride
[5] = Shelf-life (t90%) forecast, Arrhenius approach, doxorubicin.HCl 2 mg/ml pH 3.0 in 0.9% sodium chloride; type: physicochemical; settings: 2 mg/ml pH 3.0 solution in 0.9% NaCl; for K x 10^3: calculated from Arrhenius equation; for t90%: calculated shelf-life; for Kobs x 10^3: observed
Procedure: The solution was filtered through a 0.22 µm microporous membrane under nitrogen pressure. 5.0 ml aliquots were stored at: • (a) 60°C for 4 days, • (b) 55°C for 11 days, • (c) 45°C for 21 days, and • (d) 35°C for 28 days in glass vials of glass type I, 8ml top capacity vial, Teflon-faced chlorobutyl rubber bung, aluminium seal. At predetermined times the vials were analysed for doxorubicin.HCl assay and pH.
The Arrhenius equation for the degradation process was calculated from the Kobs obtained from the different temperatures taken in account for the testing (Table 28). Applying the equation, the rate constants for the pseudo-first order reactions at 4°C, 8°C, 15°C and 27°C were calculated, together with the expected shelf-life (t90%) at these temperatures.

## COc1cccc2c1C(=O)c1c(O)c3c(c(O)c1C2=O)C[C@@](O)(C(=O)CO)C[C@@H]3O[C@H]1C[C@H](N)[C@@H](O)[C@H](C)O1 [epirubicin.HCl, 4'-epi-doxorubicin]
[1]; 2 mg/ml in 0.9% Sodium Chloride Injection, Acetate (I = 0.05) pH 4.0, 55°C
  Kobs x 10^3: 124.8 1/days
[1]; 2 mg/ml in 0.9% Sodium Chloride Injection, Acetate (I= 0.05) pH 5.0, 55°C
  Kobs x 10^3: 318.1 1/days
[1]; 2 mg/ml in 0.9% Sodium Chloride Injection, Formate (I = 0.05) pH 3.5, 55°C
  Kobs x 10^3: 124.5 1/days
[1]; 2 mg/ml in 0.9% Sodium Chloride Injection, Glycine-HCl (I = 0.05) pH 2.0, 55°C
  Kobs x 10^3: 168.9 1/days
[1]; 2 mg/ml in 0.9% Sodium Chloride Injection, Glycine-HCl (I = 0.05) pH 2.5, 55°C
  Kobs x 10^3: 97.3 1/days
[1]; 2 mg/ml in 0.9% Sodium Chloride Injection, Glycine-HCl (I = 0.05) pH 3.0, 55°C
  Kobs x 10^3: 84.8 1/days
[1]; 2 mg/ml in 0.9% Sodium Chloride Injection, HCl-KCl (I = 0.05) pH 1.5, 55°C
  Kobs x 10^3: 343.2 1/days
[1]; 2 mg/ml in 5% Dextrose solution, Acetate (I = 0.05) pH 4.0, 55°C
  Kobs x 10^3: 150.6 1/days
[1]; 2 mg/ml in 5% Dextrose solution, Acetate (I = 0.05) pH 5.0, 55°C
  Kobs x 10^3: 225.7 1/days
[1]; 2 mg/ml in 5% Dextrose solution, Formate (I = 0.05) pH 3.5, 55°C
  Kobs x 10^3: 89.1 1/days
[1]; 2 mg/ml in 5% Dextrose solution, Glycine-HCl (I = 0.05) pH 2.0, 55°C
  Kobs x 10^3: 106.9 1/days
[1]; 2 mg/ml in 5% Dextrose solution, Glycine-HCl (I = 0.05) pH 2.5, 55°C
  Kobs x 10^3: 81.1 1/days
[1]; 2 mg/ml in 5% Dextrose solution, Glycine-HCl (I = 0.05) pH 3.0, 55°C
  Kobs x 10^3: 70.9 1/days
[1]; 2 mg/ml in 5% Dextrose solution, HCl-KCl (I = 0.05) pH 1.5, 55°C
  Kobs x 10^3: 288.1 1/days
[1]; 2 mg/ml in Water for Injection, Acetate (I = 0.05) pH 4.0, 55°C
  Kobs x 10^3: 376.7 1/days
[1]; 2 mg/ml in Water for Injection, Acetate (I = 0.05) pH 5.0, 55°C
  Kobs x 10^3: 430.4 1/days
[1]; 2 mg/ml in Water for Injection, Fermate (I = 0.05) pH 3.5, 55°C
  Kobs x 10^3: 125.4 1/days
[1]; 2 mg/ml in Water for Injection, Glycine-HCl (I = 0.05) pH 2.0, 55°C
  Kobs x 10^3: 79.0 1/days
[1]; 2 mg/ml in Water for Injection, Glycine-HCl (I = 0.05) pH 2.5, 55°C
  Kobs x 10^3: 55.1 1/days
[1]; 2 mg/ml in Water for Injection, Glycine-HCl (I = 0.05) pH 3.0, 55°C
  Kobs x 10^3: 66.8 1/days

## COc1cccc2c1C(=O)c1c(O)c3c(c(O)c1C2=O)C[C@@](O)(C(=O)CO)C[C@@H]3O[C@H]1C[C@H](N)[C@H](O)[C@H](C)O1 [Doxorubicin·HCl, doxorubicin]
[2]; 4°C
  K x 10^3: 0.019 1/days
  t90%: 5,652 days
[2]; 8°C
  K x 10^3: 0.038 1/days
  t90%: 2,745 days
[2]; 15°C
  K x 10^3: 0.130 1/days
  t90%: 810 days
[2]; 27°C
  K x 10^3: 0.918 1/days
  t90%: 115 days
  Kobs x 10^3: 0.850 1/days
[2]; 35°C
  Kobs x 10^3: 3.506 1/days
[2]; 45°C
  Kobs x 10^3: 12.790 1/days
[2]; 55°C
  Kobs x 10^3: 49.340 1/days
[3]; 4°C
  t90%: 3,218 days
[3]; 8°C
  t90%: 1,628 days
[3]; 15°C
  t90%: 516 days
[3]; 27°C
  t90%: 82 days
[3]; 35°C
  Kobs x 10^3: 4.190 1/days
[3]; 45°C
  Kobs x 10^3: 14.55 1/days
[3]; 55°C
  Kobs x 10^3: 58.11 1/days
[3]; 60°C
  Kobs x 10^3: 102.6 1/days
[4]; pH 3.7, 8°C, 0 months
  % stability: 100.0%
  Doxorubicin.HCl assay: 2.064 mg/mL
  pH: 3.7
[4]; pH 3.7, 8°C, 1 month
  % stability: 99.3%
  Doxorubicin.HCl assay: 2.054 mg/mL
  pH: 3.7
[4]; pH 3.7, 8°C, 3 months
  % stability: 100.0%
  Doxorubicin.HCl assay: 2.063 mg/mL
  pH: 3.6
[4]; pH 3.7, 15°C, 0 months
  % stability: 100.0%
  Doxorubicin.HCl assay: 2.064 mg/mL
  pH: 3.7
[4]; pH 3.7, 15°C, 1 month
  % stability: 100.5%
  Doxorubicin.HCl assay: 2.073 mg/mL
  pH: 3.7
[4]; pH 3.7, 15°C, 3 months
  % stability: 98.4%
  Doxorubicin.HCl assay: 2.029 mg/mL
  pH: 3.6
[4]; pH 3.7, 27°C, 0 months
  % stability: 100.0%
  Doxorubicin.HCl assay: 2.064 mg/mL
  pH: 3.7
[4]; pH 3.7, 27°C, 1 month
  % stability: 91.5%
  Doxorubicin.HCl assay: 1.888 mg/mL
  pH: 3.6
[4]; pH 3.7, 27°C, 3 months
  % stability: 74.9%
  pH: 3.3
[5]; 4°C
  K x 10^3: 0.017 1/days
  t90%: 6,166 days
[5]; 8°C
  K x 10^3: 0.037 1/days
  t90%: 2,838 days
[5]; 15°C
  K x 10^3: 0.137 1/days
  t90%: 768 days
[5]; 27°C
  K x 10^3: 1.112 1/days
  t90%: 94 days
[5]; 35°C
  Kobs x 10^3: 3.89 1/days
[5]; 45°C
  Kobs x 10^3: 21.61 1/days
[5]; 55°C
  Kobs x 10^3: 75.90 1/days
[5]; 60°C
  Kobs x 10^3: 164.9 1/days
